# From PubChem BioAssay AID2060326 (Molecular Pharmacology Branch, DTP, NCI, 2025)
# Values joined by “and” are separate entries in the source; they are usually repeats but may differ in a detail not shown here. Equal entries are not always repeated.
# Tested on: MDA-MB-468 multi-cell spheroids, viability
# Experiment: Anticancer human tumor MDA-MB-468 cell line growth inhibition [IpAb];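 also: spheroids exposed to agents for seven days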;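 as to viability, T/C: 100% = DMSO vehicle control viability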
# Conditions: for viability, T/C: stronger effect = lower value
# Procedure, shortened: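 Combinations with ipatasertib or abemaciclib were tested on tumour spheroids holding HUVEC (25%) and MSC (15%) alongside 60% malignant cells. Top concentration was at or near clinical Cmax (10 microM if undefined), descending in half-log steps.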
structure (smiles),measurement,setting,value
Cn1ncnc1[C@H]1c2n[nH]c(=O)c3cc(F)cc(c23)N[C@@H]1c1ccc(F)cc1,"viability, T/C",compound 0.000316 µM,121% and 90.6%
same,"viability, T/C",compound 0.001 µM,105% and 98.7%
same,"viability, T/C",compound 0.00316 µM,113% and 81%
same,"viability, T/C",compound 0.01 µM,103% and 93.2%
same,"viability, T/C",compound 0.0316 µM,84.2% and 83.9%
same,"viability, T/C",compound 0.1 µM,68.8% and 65.7%
same,IC50,curve of compound,> 0.1 µM
C=CC(=O)N1CCN(c2nc(=O)n(-c3c(C)ccnc3C(C)C)c3nc(-c4c(O)cccc4F)c(F)cc23)C(C)C1 (configuration not stated) + CC(C)NCC(C(=O)N1CCN(c2ncnc3c2C(C)CC3O)CC1)c1ccc(Cl)cc1,IC50,"curve of first compound, second compound 0.1 µM",7.04 µM
same,IC50,"curve of first compound, second compound 0.316 µM",4.93 µM
same,IC50,"curve of first compound, second compound 1 µM",4.17 µM
same,IC50,"curve of first compound, second compound 3.16 µM",< 0.0316 µM
same,IC50,"curve of first compound, second compound 10 µM",< 0.0316 µM
same,"viability, T/C","second compound 0.1 µM, first compound 0.0316 µM",115%
same,"viability, T/C","second compound 0.1 µM, first compound 0.1 µM",123%
same,"viability, T/C","second compound 0.1 µM, first compound 0.316 µM",118%
same,"viability, T/C","second compound 0.1 µM, first compound 1 µM",105%
same,"viability, T/C","second compound 0.1 µM, first compound 3.16 µM",78.2%
same,"viability, T/C","second compound 0.1 µM, first compound 10 µM",37.8%
same,"viability, T/C","second compound 0.316 µM, first compound 0.0316 µM",94.4%
same,"viability, T/C","second compound 0.316 µM, first compound 0.1 µM",69.8%
same,"viability, T/C","second compound 0.316 µM, first compound 0.316 µM",68.4%
same,"viability, T/C","second compound 0.316 µM, first compound 1 µM",71.6%
same,"viability, T/C","second compound 0.316 µM, first compound 3.16 µM",67.3%
same,"viability, T/C","second compound 0.316 µM, first compound 10 µM",27.4%
same,"viability, T/C","second compound 1 µM, first compound 0.0316 µM",64.5%
same,"viability, T/C","second compound 1 µM, first compound 0.1 µM",55.9%
same,"viability, T/C","second compound 1 µM, first compound 0.316 µM",62.4%
same,"viability, T/C","second compound 1 µM, first compound 1 µM",57.6%
same,"viability, T/C","second compound 1 µM, first compound 3.16 µM",59.8%
same,"viability, T/C","second compound 1 µM, first compound 10 µM",19.2%
same,"viability, T/C","second compound 3.16 µM, first compound 0.0316 µM",42.3%
same,"viability, T/C","second compound 3.16 µM, first compound 0.1 µM",41.2%
same,"viability, T/C","second compound 3.16 µM, first compound 0.316 µM",44.5%
same,"viability, T/C","second compound 3.16 µM, first compound 1 µM",39.6%
same,"viability, T/C","second compound 3.16 µM, first compound 3.16 µM",29.6%
same,"viability, T/C","second compound 3.16 µM, first compound 10 µM",8.37%
same,"viability, T/C","second compound 10 µM, first compound 0.0316 µM",19.5%
same,"viability, T/C","second compound 10 µM, first compound 0.1 µM",22.1%
same,"viability, T/C","second compound 10 µM, first compound 0.316 µM",20.5%
same,"viability, T/C","second compound 10 µM, first compound 1 µM",19.3%
same,"viability, T/C","second compound 10 µM, first compound 3.16 µM",13.8%
same,"viability, T/C","second compound 10 µM, first compound 10 µM",5.04%
